From patent US10576102B2, “KOC1-derived peptide and vaccine including same” (ONCOTHERAPY SCIENCE, INC., priority 2014, dated 2020)
“Also recorded” adds a separate entry of the source.

Columns and labels:
[1] = test system: peptide-pulsed C1R-A33; assay: In vitro CTL induction, IFN-gamma ELISPOT assay (HLA-A*3303); format: cell-based, human; conditions: CTLs induced with peptide-pulsed DCs from HLA-A*3303-positive volunteers; day 21; vs peptide-pulsed C1R-A33, compared with unpulsed control
Protocol: (§1) C1R (C1R-A33) that stably expresses HLA-A*3303 was used as a stimulator cell. A cDNA encoding the open-reading frame of HLA-A*3303 was amplified by PCR and cloned into an expression vector. C1R cells were transfected with the expression vector, and then selected using G418 (Invitrogen) for two weeks. The G418-selected cells were seeded into wells containing G418-added culture medium in a 96-well plate, and further cultured for 30 days. The exogenous HLA-A*3303 expression in C1R cells was verified by flow cytometric analysis.
(§2) Monocyte-derived dendritic cells (DCs) were used as the antigen-presenting cell to induce a cytotoxic T lymphocyte (CTL) response against peptides presented on human leukocyte antigens (HLAs). As described in the other sections, DCs were generated in vitro (Nakahara S et al., Cancer Res 2003, 63(14): 4112-8). Specifically, peripheral-blood mononuclear cells isolated from healthy volunteers (HLA-A*3303-positive) with the Ficoll-Paque plus solution (Pharmacia) were separated by attaching to plastic tissue culture dishes (Becton Dickinson) and concentrated as a monocyte fraction. The monocyte-concentrated population was cultured in the presence of 1000 IU/ml granulocyte macrophage colony-stimulating factor (R&D System) and 1000 IU/ml interleukin(IL)-4 (R&D System) in an AIM-V medium (Invitrogen) containing 2% heat-inactivated autologous serum (AS). After seven days of culturing, the cytokine-induced DCs were pulsed with 20 micro-g/ml each of the synthesized peptides in an AIM-V medium at 37 degrees C. for three hours in the presence of 3 micro-g/ml beta 2-microglobulin. The generated cells appeared to express on their cell surface DC-associated molecules such as CD80, CD83, CD86 and HLA class II (data not shown). Next, these peptide-pulsed DCs were inactivated by X-ray irradiation (20 Gy), and mixed in a 1:20 ratio with autologous CD8^+ T cells obtained by positive selection using the CD8 Positive Isolation Kit (Dynal). These culture products were seeded in a 48-well plate (Corning). Each well was made to contain 1.5×10^4 peptide-pulsed DCs, 3×10^5 CD8^+ T cells and 10 ng/ml IL-7 (R&D System) in 0.5 ml of the AIM-V/2% AS medium. Three days later, these culture products were added with a final concentration of 20 IU/ml IL-2 (CHIRON). On day 7 and day 14, T cells were further stimulated with peptide-pulsed autologous DCs. The DCs were prepared every time by the same method as above. On day 21, after the third peptide stimulation, CTLs were examined against the peptide-pulsed C1R-A33 cell by a human interferon (IFN)-gamma enzyme-linked immunospot (ELISPOT) assay (Tanaka H et al., Br J Cancer 2001, 84(1): 94-9; Umano Y et. al., Br J Cancer 2001, 84(8): 1052-7; Uchida N et al., Clin Cancer Res 2004, 10(24): 8577-86; Suda T et al., Cancer Sci 2006, 97(5): 411-9; Watanabe T et al., Cancer Sci 2005, 96(8): 498-506).
(§3) Specifically, peptide-pulsed C1R-A33 (1×10^4 cells/well) was prepared as the stimulator cell. The induced CTLs, i.e., CTL lines and CTL clones, were used as the responder cell. The IFN-gamma ELISPOT assay and IFN-gamma ELISA were performed according to the manufacturer's manual.

[2] = test system: COS7 cells transfected with both KOC1 and HLA-A*3303; assay: Specific CTL activity against target cells expressing KOC1 and HLA-A*3303; format: cell-based, African green monkey; conditions: for specific CTL activity of CTL clones against target cells expressing KOC1 and HLA-A*3303: COS7 transfected with both full-length KOC1 and HLA-A*3303; for specific CTL activity of CTL clones against control cells: COS7 transfected with either full-length KOC1 or HLA-A*3303
Protocol: as §3
A cDNA encoding the open-reading frame of a target gene or HLA-A*3303 was amplified by PCR. The PCR-amplified product was cloned into an expression vector. Either or both of the target gene-expressing vector and the HLA-A*3303-expressing vector were transfected into […], which is a cell line negative for the target gene and HLA, using Lipofectamine 2000 (Invitrogen) following the manufacturer's recommended protocol. Two days after transfection, the transfected cells were harvested using versene (Invitrogen), and used as the target cell for CTL activity assay (5×10^4 cells/well).
The CTL lines and CTL clones established against KOC1-A33-9-485 (SEQ ID NO: 64) (a), KOC1-A33-9-286 (SEQ ID NO: 67) (b), and KOC1-A33-10-542 (SEQ ID NO: 77) (c) were investigated for their ability to recognize target cells expressing KOC1 and the HLA-A*3303 molecule. COS7 cells transfected with both full-length KOC1 and the HLA-A*3303 gene (a specific model of target cells expressing KOC1 and the HLA-A*3303 gene) were prepared as the target cell. COS7 cells transfected with either full-length KOC1 or HLA-A*3303 were prepared as the control.

[3] = test system: peptide-pulsed C1R-A33; assay: IFN-gamma ELISA of CTL lines and CTL clones (HLA-A*3303); format: cell-based, human; conditions: for IFN-gamma production of CTL clones, ELISA: CTL clones by limiting dilution, peptide-pulsed C1R-A33; for IFN-gamma production of CTL lines, ELISA: target cells pulsed with the peptide vs not pulsed, C1R-A33
Protocol: CTLs were propagated in culture using methods similar to those disclosed by Riddell et al. (Walter E A et al., N Engl J Med 1995, 333(16): 1038-44; Riddell S R et al., Nat Med 1996, 2(2): 216-23). The CTLs were co-cultured in a total of 25 ml AIM-V medium containing 5% AS (AIM-V/5% AS) and 40 ng/ml anti-CD3 antibody with two types of Mitomycin C-treated human B lymphoblastoid cell lines at 5×10^6 cells/flask. One day after beginning of the culturing, 120 IU/ml IL-2 was added to the culture. On days 5, 8 and 11, a fresh AIM-V/5% AS medium containing 30 IU/ml IL-2 was added to the culture (Tanaka H et al., Br J Cancer 2001, 84(1): 94-9; Umano Y et al., Br J Cancer 2001, 84(8): 1052-7; Uchida N et al., Clin Cancer Res 2004, 10(24): 8577-86; Suda T et al., Cancer Sci 2006, 97(5): 411-9; Watanabe T et al., Cancer Sci 2005, 96(8): 498-506).
Dilution of CTLs was carried out to make 0.3, 1 and 3 cells/well in 96 round-bottomed microtiter plates (Nalge Nunc International). The CTLs were co-cultured with two types of Mitomycin C-treated human B lymphoblastoid cell lines at 1×10^4 cells/well in a total of 150 micro-1/well AIM-V/5% AS medium with 30 ng/ml anti-CD3 antibody and 125 IU/ml IL-2. Ten days later, IL-2 was added to the medium at 50 micro-1/well to reach a final concentration of 125 IU/ml. On day 14, the CTL activity was tested, and the CTL clones were propagated using the same method as described above (Uchida N et al., Clin Cancer Res 2004, 10(24): 8577-86; Suda T et al., Cancer Sci 2006, 97(5): 411-9; Watanabe T et al., Cancer Sci 2005, 96(8): 498-506).
as §3

[4] = test system: peptide-pulsed C1R-A11; assay: In vitro CTL induction, IFN-gamma ELISPOT assay (HLA-A*1101); format: cell-based, human; conditions: CTLs induced with peptide-pulsed DCs from HLA-A*1101-positive volunteers; day 21; vs peptide-pulsed C1R-A11, compared with unpulsed control; listed as KOC1-A11-9-258
Protocol: as §1, with “(C1R-A11)” for “(C1R-A33)”, “HLA-A*1101” for “HLA-A*3303”
as §2, with “volunteers (HLA-A*1101-positive)” for “volunteers (HLA-A*3303-positive)”, “were inactivated,” for “were inactivated”, “peptide-pulsed C1R-A11” for “peptide-pulsed C1R-A33 cell”, “Y et” for “Y et.”
Specifically, peptide-pulsed C1R-A11 (1×10^4 cells/well) was prepared as the stimulator cell. The induced CTLs, i.e., CTL lines and CTL clones, were used as the responder cell. The IFN-gamma ELISPOT assay and IFN-gamma ELISA were performed according to the manufacturer's manual.

In the case of “EVKLEAHIR (a peptide derived from KOC1) [SEQ ID NO: 64]”, the “peptide-specific CTL activity (IFN-gamma production), ELISPOT” value (shortened to “peptide-specific CTL activity”) [1] is reported as “potent IFN-gamma production”, the “specific CTL activity of CTL clones against target cells expressing KOC1 and HLA-A*3303” value ([2]; listed as KOC1-A33-9-485) is reported as “specific CTL activity; also recorded: potent CTL activities” and the “specific CTL activity of CTL clones against control cells” value ([2]; listed as KOC1-A33-9-485) is reported as “a significant specific CTL activity was not shown; also recorded: a significant specific CTL activity was not detected”. For the same sequence, the “IFN-gamma production of CTL clones, ELISA” value ([3]; listed as KOC1-A33-9-485) was “Potent IFN-gamma production” and the “IFN-gamma production of CTL lines, ELISA” value [3] was “potent IFN-gamma production”.
“HFYACQVAQR (a peptide derived from KOC1) [SEQ ID NO: 77]” was tested, and the “peptide-specific CTL activity” value [1] was “potent IFN-gamma production”, the “specific CTL activity of CTL clones against target cells expressing KOC1 and HLA-A*3303” value ([2]; listed as KOC1-A33-10-542) was “specific CTL activity; also recorded: potent CTL activities” and the “specific CTL activity of CTL clones against control cells” value ([2]; listed as KOC1-A33-10-542) was “a significant specific CTL activity was not shown; also recorded: a significant specific CTL activity was not detected”. For the same sequence, the “IFN-gamma production of CTL clones, ELISA” value ([3]; listed as KOC1-A33-10-542) was “Potent IFN-gamma production” and the “IFN-gamma production of CTL lines, ELISA” value [3] was “potent IFN-gamma production”.
With “KSILEIMHK (a peptide derived from KOC1) [SEQ ID NO: 1]” the “peptide-specific CTL activity” value [4] was “no specific IFN-gamma production; also recorded: specific IFN-gamma production was not observed”.
“NFVGRLIGK (a peptide derived from KOC1) [SEQ ID NO: 67]” was tested, and the “peptide-specific CTL activity” value [1] was “potent IFN-gamma production”, the “specific CTL activity of CTL clones against target cells expressing KOC1 and HLA-A*3303” value ([2]; listed as KOC1-A33-9-286) was “specific CTL activity; also recorded: potent CTL activities” and the “specific CTL activity of CTL clones against control cells” value ([2]; listed as KOC1-A33-9-286) was “a significant specific CTL activity was not shown; also recorded: a significant specific CTL activity was not detected”. The “IFN-gamma production of CTL clones, ELISA” value ([3]; listed as KOC1-A33-9-286) was “Potent IFN-gamma production” and the “IFN-gamma production of CTL lines, ELISA” value [3] was “potent IFN-gamma production”.
